We go through three compounds from US6537991B1, “Method of treating a peripheral neuropathic pain” (AstraZeneca AB, priority 1999, dated 2003).

The subject of assay [1] is chronic constrictive injury (CCI) model (loosely ligated common sciatic nerve). Kind of assay: chronic constrictive injury (CCI) model of peripheral mononeuropathy. Format: in vivo, rat. The note with it: oral test doses of 0.3, 3 and 30 mg/kg/day (dosed four times a day). The text has this: The development of a rodent model of peripheral mononeuropathy (Pain, 33, 1988, 87-107; Exp Brain Res, 113, 1997, 200-206; and Exp Brain Res, 120, 1998, 432-438) has provided a new approach for studies of post-injury neuropathic pain. The model produces neuropathic pain syndromes in the rat by loosely ligating the common sciatic nerve and has been described as a chronic constrictive injury (CCI) model. The behavioural, morphological and autoradiographic data obtained from the rodents in this model closely represent the clinical features of post-injury neuropathic pain. […] This model has value therefore in predicting efficacy of compounds against neuropathic pain.
The identification of compounds which are useful in the treatment or prevention of neuropathic pain is the subject of the present invention. These properties may be assessed, for example, using the CCI model as described in Pain, 33, 1988, 87-107.

Assay [2] shares this test system. To be noted: cited from earlier work.

Read-outs that look alike come from different tables or passages of the source.

As for `CCN(Cc1cc(Cl)ccc1OCC(C)C)c1ccc(C(=O)NS(=O)(=O)c2c(C)noc2C)nn1` [d), N-(3,5-dimethylisoxazol-4-ylsulphonyl)-6-[N-(5-chloro-2-(2-methylpropoxy)benzyl)-N-ethylamino]pyridazine-3-carboxamide], the “activity in the CCI model” value in assay [1] is listed as “demonstrates activity”. Consider `NCC1(CC(=O)O)CCCCC1` [gabapentin], for which the “activity in the CCI model” value in assay [2] (Eur J Pharmacol, 324, 1997, 157-160) was “demonstrates activity”. In the case of `O=C(c1ccccc1)c1ccc2n1CCC2C(=O)O` (stereo not drawn) [ketorolac tromethamine], the “activity compared to morphine” value in assay [2] (dosed intrathecally, Can J Anaesth, 1996, 43, 967) is given as “modest activity”.
